Laboratory results from US5728709A, “Alkyl and aralkyl-substituted pyrrolocarbazole derivatives that stimulate platelet production” (Kyowa Hakko Kogyo Co., Ltd., priority 1995, dated 1998).
Where two headings read alike, the source gives them in different places.

Experiments:
[1] = test system: Megakaryocyte Colony Formation; experiment: Megakaryocyte Colony Formation-Stimulating Activity; assay type: cell-based, Balb/c mouse; details: IL-3 present, 7 days culture, relative to control (IL-3 alone) = 100
Experimental: An eight-week-old Balb/c mouse was killed. Its femurs and cervical vertebrae were taken out and both ends thereof were cut off. Bone marrow cells were collected from the pieces cut off from the femurs and cervical vertebrae using a syringe containing IMDM (430-2200EA manufactured by Gibco Co.), and blown into a test tube. The test tube was allowed to stand for 5 minutes, and the supernatant was collected with a pipet. Each of the test compounds at various concentrations was separately added to a separate reaction mixture corltaining the bone marrow cells (50,000 cells), bovine serum albumin (2%: A4508, manufactured by Sigma Co.), transferrin (600 μg/ml: 652202, manufactured by Boehringer Mannheim Co.), IL-3 (100 U/ml) , cholesterol (16 μg/ml: 036-0641, manufactured by Wako Co.) and agar (0.6%: 0142-02, manufactured by Difco Laboratories);Then, 1 ml each of the mixtures was put into a 35-mm dishes (manufactured by Lux Co.); and cultured at 37° C., 5% CO2, and relative humidity of not less than 95%, for 7 days. A control was prepared by adding IL-3 alone to the bone marrow cells. After the completion of the culturing, the resultant agar was dried by using filter paper (1001-055, manufactured by Whatman Co.), fixed with 2.5% glutaraldehyde, followed by acetylcholinesterase staining (ACHE staining).
ACHE staining was carried out according to the following method:
ACHE staining: To each sample was added a solution containing 0.67 mg/ml acetylthiocholine iodide, 2.94 mg/ml sodium citrate, 7.5 mg/ml copper (II) sulfate, and 1.65 mg/ml potassium ferricyanide. Then, the mixture was allowed to stand at room temperature in the dark for 4 to 6 hours.
A group of 4 or more megakaryocytes which were stained reddish brown was regarded as one colony, and the number of colonies per dish was calculated using a microscope.
The results are shown in Table 5 as values relative to the control. (In the table, the relative values were calculated on the basis of the control defined as 100).

[2] = test system: Platelet Production; experiment: Platelet Production-Stimulating Activity in Mice; assay type: in vivo; details: Mus musculus, 360 h, male Balb/c mice, 15th day, control = 100, read-out: Ratio of increase (number of platelets, A/B×100); for response vs control in vivo at 50 mg/kg: 50 mg/kg i.p. once a day for 5 days
Experimental: A test compound was intraperitoneally (i. p.) or subcutaneously (s. c.) administered to 7-week-old male Balb/c mice once a day for consecutive 5 days (test group, 4 mice per group). A control group (4 mice per group) was administered only a solvent (5% Tween 80/water) alone. On the 15th day from the start of the administration, blood was collected from the fundus oculi vein of each mouse, and the number of platelets was counted with a micro counter (Model CC-180A, manufactured by Toa Iryo Denshi Co.). The rate (%) of increase in the number of platelets in the test group which had been administered test compounds over the control group was calculated according to the following formula to evaluate the effect of the test compound.
[Ratio of increase]=A/B×100
A: the number of platelets in the test group
B: the number of platelets in the control group

[3] = sc, 10 mg/kg s.c. once a day for 5 days
[4] = sc, free base, 10 mg/kg s.c. once a day for 5 days

| Compound | Rel. Value (megakaryocyte colony formation, control defined as 100) ([1]; 1 nM) | Rel. Value (megakaryocyte colony formation, control defined as 100) ([1]; 10 nM) | further results |
| --- | --- | --- | --- |
| CN(C)CCNc1ccccc1-c1cc2c(c3c1C(=O)N(C)C3=O)c1ccccc1n2C [Compound 40] | 138 | – | response vs control in vivo at 50 mg/kg ([2]; ip): 174% |
| CN(C)CCCn1c2ccccc2c2c3c(c(-c4ccccc4[N+](=O)[O-])cc21)C(=O)N(C)C3=O [Compound 24] | 125 | – | response vs control in vivo at 10 mg/kg ([2]; ip, 10 mg/kg i.p. once a day for 5 days): 125% |
| CN(C)CCn1c(=O)c2c(c3c(c4c5ccccc5n(C)c42)C(=O)N(C)C3=O)c2ccccc21 [Compound 93] | – | – | Rel. Value (megakaryocyte colony formation, control defined as 100) ([1]; 0.1 nM): 119; response vs control in vivo at 50 mg/kg ([2]; ip): 176% |
| CN1C(=O)c2c(-c3ccccc3NCCO)cc3c(c2C1=O)c1ccccc1n3C [Compound 37] | 130 | – | – |
| CN(C)CCNc1ccc(Br)cc1-c1cc2c(c3c1C(=O)N(C)C3=O)c1ccccc1n2C [Compound 82] | – | 119 | – |
| CN(C)CCCn1c2ccccc2c2c3c(c(-c4ccccc4N(C)C)cc21)C(=O)N(C)C3=O [Compound 26] | – | 110 | – |
| CN(C)CCOc1c(N)cccc1-c1cc2c(c3c1C(=O)N(C)C3=O)c1ccccc1n2C [Compound 203] | – | – | response vs control in vivo at 10 mg/kg [2, 3]: 146% |
| CC(=O)c1ccc2c(c1)c1c3c(c(-c4ccccc4OCCN(C)C)cc1n2C)C(=O)N(C)C3=O [Compound 180] | – | – | response vs control in vivo at 10 mg/kg [2, 3]: 189% |
| CC(CN(C)C)Oc1ccccc1-c1cc2c(c3c1C(=O)N(C)C3=O)c1ccccc1n2C (stereo not shown) [Compound 102] | 142 | – | response vs control in vivo at 10 mg/kg [2, 4]: 123% |
| CN1C(=O)c2c(-c3ccccc3N)cc3[nH]c4ccccc4c3c2C1=O [Compound 11] | – | 128 | – |
| CN(C)CCOc1ccccc1-c1cc2c(c3c1C(=O)N(C)C3=O)c1cc(C=O)ccc1n2C [Compound 177] | – | 120 | – |
| CN1C(=O)c2c(-c3ccccc3N)cc3c(c2C1=O)c1ccccc1n3Cc1ccc(N)cc1 [Compound 17] | 123 | – | – |
| CN(C)CCOc1ccccc1-c1cc2c(c3c1C(=O)N(C)C3=O)c1ccccc1n2C [Compound 66] | – | 119 | response vs control in vivo at 50 mg/kg ([2]; ip): 206% |
| CN1C(=O)c2c(-c3ccccc3[N+](=O)[O-])cc3[nH]c4ccccc4c3c2C1=O [Compound 10] | 120 | – | – |
| CN(C)CCOc1ccc(C=O)cc1-c1cc2c(c3c1C(=O)N(C)C3=O)c1cc(Br)ccc1n2C [Compound 160] | – | 120 | response vs control in vivo at 10 mg/kg [2, 3]: 117% |
| CN(C)CCCNc1ccccc1-c1cc2c(c3c1C(=O)N(C)C3=O)c1ccccc1n2C [Compound 51] | – | 141 | – |
| CN(C)CCOc1ccc(Br)cc1-c1cc2c(c3c1C(=O)N(C)C3=O)c1ccccc1n2C [Compound 130] | – | – | response vs control in vivo at 10 mg/kg [2, 4]: 295% |
| CCN(CC)CCC(=O)Nc1ccccc1-c1cc2c(c3c1C(=O)N(C)C3=O)c1ccccc1n2C [Compound 60] | 110 | – | – |
| CN(C)CC(=O)Nc1ccccc1-c1cc2c(c3c1C(=O)N(C)C3=O)c1ccccc1n2C [Compound 56] | 116 | – | – |
| O=C1c2c(-c3ccccc3[N+](=O)[O-])cc3[nH]c4ccccc4c3c2C(=O)N1Cc1ccccc1 [Compound 1] | 147 | – | – |
| CN1C(=O)c2c(-c3ccccc3[N+](=O)[O-])cc3c(c2C1=O)c1ccccc1n3CCCCN1CCOCC1 [Compound 34] | – | – | Rel. Value (megakaryocyte colony formation, control defined as 100) ([1]; 0.1 nM): 114 |
| CN(C)CCCn1c2ccccc2c2c3c(c(-c4ccccc4NCCN(C)C)cc21)C(=O)N(C)C3=O [Compound 36] | – | 149 | – |
| CN(C)CCOc1ccc(N(C)C)cc1-c1cc2c(c3c1C(=O)N(C)C3=O)c1ccccc1n2C [Compound 170] | 125 | – | response vs control in vivo at 10 mg/kg [2, 3]: 138% |
| Nc1ccccc1-c1cc2[nH]c3ccccc3c2c2c1C(=O)N(Cc1ccccc1)C2=O [Compound 5] | 117 | – | response vs control in vivo at 50 mg/kg ([2]; ip): 111% |
| CN(C)CCOc1ccc(OCc2ccccc2)cc1-c1cc2c(c3c1C(=O)N(C)C3=O)c1ccccc1n2C [Compound 147] | – | – | response vs control in vivo at 10 mg/kg [2, 3]: 154% |
| CN(C)CCNc1ccc([N+](=O)[O-])cc1-c1cc2c(c3c1C(=O)N(C)C3=O)c1ccccc1n2C [Compound 79] | – | – | response vs control in vivo at 25 mg/kg ([2]; ip, 25 mg/kg i.p. once a day for 5 days): 180% |
